Source: patent EP1254122B1, “NOVEL 3-SUBSTITUTED 1,2,4-BENZOTRIAZINES, A METHOD FOR THEIR PRODUCTION AND THE USE THEREOF” (UFZ-UMWELTFORSCHUNGSZENTRUM Leipzig-Halle GmbH, priority 1999, dated 2001)
Values after ≈ are worked out from the molar mass of the structure shown.

Tests used:
Assay type in all cases: cell-based
HeLa = experiment: Inhibition of cell growth, HeLa cells; settings: 37°C, three days, evaluated by microscope against untreated reference cells; for IC50: Homo sapiens, 72 h, read-out: IC50-Wert (50%ige Hemmung des Zellwachstums in µg/ml)
Protocol: (§1) Zu je 1 ml einer entsprechenden Zellstammlösung werden die zu testenden Substanzen in wäßriger steriler Lösung in Konzentrationsschritten von je 2-50 µg gespritzt. Die Testkammern werden anschließend zusammen mit einer unbehandelten Referenzkammer bei 37°C drei Tage entwickelt.
(§2) Die Auswertung erfolgt mittels Mikroskop. Es werden Zellvermehrung bzw. Zellzerstörung (Zustand der Zellmembran sowie des Zellkern) mit unbehandelten Referenzzellen verglichen. Tabelle: IC50-Wert (50%ige Hemmung des Zellwachstums in µg/ml) ausgewählter Substanzen der Formel I

Peritoneal carcinom = experiment: Inhibition of cell growth, peritoneal carcinoma cells; settings: 37°C, three days, evaluated by microscope against untreated reference cells; for IC50: 72 h, read-out: IC50-Wert (50%ige Hemmung des Zellwachstums in µg/ml)
Protocol: as §1, §2

Hep2 = experiment: Inhibition of cell growth, Hep2 cells; settings: 37°C, three days, evaluated by microscope against untreated reference cells; for IC50: Homo sapiens, HEp-2, 72 h, read-out: IC50-Wert (50%ige Hemmung des Zellwachstums in µg/ml)
Protocol: as §1, §2

permanenten Zellkulturen = experiment: Inhibition of cell growth, permanent cell cultures (overall statement); settings: result in words; HeLa-, Hep2-, Peritonealcarcinom- and Pleurocarcinomzellen
Protocol: as §1, §2
Die erfindungsgemäßen Verbindungen hemmen sämtlich das Zellwachstum von permanenten Zellkulturen wie z.B. von HeLa-, Hep2-Zellen, von Peritonealcarcinom- sowie von Pleurocarcinomzellen.

Pleurocarcinom = experiment: Inhibition of cell growth, pleural carcinoma cells; settings: 72 h, 37°C, three days, evaluated by microscope against untreated reference cells, read-out: IC50-Wert (50%ige Hemmung des Zellwachstums in µg/ml)
Protocol: as §1, §2

| Molecule | IC50-Wert (50%ige Hemmung des Zellwachstums in µg/ml) (HeLa) [µg/mL] | IC50-Wert (50%ige Hemmung des Zellwachstums in µg/ml) (Peritoneal carcinom) [µg/mL] | IC50-Wert (50%ige Hemmung des Zellwachstums in µg/ml) (Hep2) [µg/mL] | Hemmung des Zellwachstums (Wirksamkeit) (permanenten Zellkulturen) | IC50 (Peritoneal carcinom) [µg/mL] | IC50 (Hep2) [µg/mL] | IC50 (HeLa) [µg/mL] | IC50 (Pleurocarcinom) [µg/mL] |
| --- | --- | --- | --- | --- | --- | --- | --- | --- |
| 3-(D-galacto-Tetritol-1-yl)-1,2,4-benzotriazin [Verbindung i] | 400 |  |  |  |  |  |  |  |
| COC(=O)Cc1nnc2ccc(Cl)cc2n1 [Verbindung b, 3-(Methoxy-carbonylmethyl)-6-chlor-benzo-1,2,4-triazin] | 160 (≈ 673 µM) | 150 (≈ 631 µM) | 120 (≈ 505 µM) |  |  |  |  |  |
| COC(=O)Cc1nnc2cccc(Cl)c2n1 [Verbindung c, 3-(Methoxy-carbonylmethyl)-5-chlor-benzo-1,2,4-triazin] | 8 to 16 | 12 (≈ 50.5 µM) | 16 (≈ 67.3 µM) | bevorzugte Wirksamkeit |  |  |  |  |
| COC(=O)Cc1nnc2ccc(Cl)c(N)c2n1 [Verbindung d, 3-(Methoxy-carbonylmethyl)-5-amino-6-chlor-benzo-1,2,4-triazin] | 50 (≈ 198 µM) | 25 to 30 |  |  |  |  |  |  |
| COC(=O)Cc1nnc2ccccc2n1 [Verbindung e, 3-(Methoxy-carbonylmethyl)-1,2,4-benzotriazin] |  |  |  |  | 350 (≈ 1720 µM) | 100 (≈ 492 µM) | 180 (≈ 886 µM) | 500 (≈ 2460 µM) |
| CCOC(=O)Cc1nnc2ccccc2n1 [Verbindung f, 3-(Ethoxy-carbonylmethyl)-1,2,4-benzotriazin] |  |  |  |  | 180 (≈ 829 µM) | 190 to 200 (≈ 875 to 921 µM) | 378 (≈ 1740 µM) | 500 (≈ 2300 µM) |
| CCOC(=O)Cc1nnc2ccc(Br)cc2n1 [Verbindung g, 3-(Ethoxy-carbonylmethyl)-6-brom-benzo-1,2,4-triazin] | 8 to 16 | 35 (≈ 118 µM) | 8 to 16 | bevorzugte Wirksamkeit |  |  |  |  |
| OC[C@@H](O)[C@@H](O)[C@H](O)c1nnc2ccccc2n1 [Verbindung h, 3-(D-arabino-Tetritol-1-yl)-1,2,4-benzotriazin] |  |  |  |  |  | 150 (≈ 597 µM) | 150 (≈ 597 µM) |  |
| OC[C@@H](O)[C@@H](O)[C@H](O)c1nnc2ccc(Cl)cc2n1 [Verbindung k, 3-(D-arabino-Tetritol-1-yl)-6-chlor-benzo-1,2,4-triazin] | 250 (≈ 875 µM) |  |  |  |  |  |  |  |
| CC(C)NC(=O)Cc1nnc2ccccc2n1 [Verbindung l, 3-(Isopropylamino-carbonylmethyl)-1,2,4-benzotriazin] |  |  |  | bevorzugte Wirksamkeit | 170 (≈ 738 µM) | 100 (≈ 434 µM) | 86 (≈ 373 µM) |  |
